The record followed here is the supplement of paper PMC11208160.

This series is described as follows: recombinant UMI read abundance after kanamycin selection (control-corrected) (log10(CPM+1)); higher = more efficient recombination; extreme values may be limits of the assay; sequences stand for … in AGTGCAGAGAAAATCGGCCAGTTTTCTCTGCCTGCAGTCCGCATGCCGTGGGACCCCTTGGGTTCTAACCTGTTGCCTAGATTTATGCAGCGGACTGCCTTTCTCCCAAAGTGATAAACCGG…AGGTTGGTTTCACT; site = the 11-nt donor. Here is the method:
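Pooled E. coli donor-specificity screen for the IS621 bridge recombinase. Each library member carries a reprogrammed 11-nt donor and a full-length LE bridge RNA expressed in cis from the natural promoter, with a paired donor-binding loop (8-nt LDG + 4-nt RDG) and a target-binding loop fixed to T5. It is co-electroporated with a T5 target plasmid; recombinase is induced with 0.07 mM IPTG and recombinants are selected on kanamycin. UMIs are counted as CPM, averaged over two biological replicates and corrected by the unselected control. Molecule = full bridge RNA written as DNA, built from the T5 scaffold: LDG = donor specificity nt 1-8, RDG = reverse complement of nt 8-11.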
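Note: IS621 bridge recombinase in Escherichia coli cells against a fixed T5 target plasmid.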

Regarding “AGAGCGACATGGACCGGTTTTCCCGGTAATCCGTATTTGTG (site AGAGCGACTCA)”, the “recombinant UMI read abundance (log10)” value was 1.49.

Consider “AGAGGGTCATGGACCGGTTTTCCCGGTAATCCGTATTTGGT (site AGAGGGTCTAC)”, for which the “recombinant UMI read abundance (log10)” value came to 2.54.

Regarding “AGAGGTCCATGGACCGGTTTTCCCGGTAATCCGTATTTGTG (site AGAGGTCCTCA)”, the “recombinant UMI read abundance (log10)” value is 0.00302.

As for “AGAGTACCATGGACCGGTTTTCCCGGTAATCCGTATTTGCA (site ACAGTATCTTG)”, the “recombinant UMI read abundance (log10)” value stood at 1.61.

On to “AGAGTACCATGGACCGGTTTTCCCGGTAATCCGTATTTGCA (site AGAGTACCTTG)”, for which the “recombinant UMI read abundance (log10)” value was determined as 0.

Turning to “AGAGTTACATGGACCGGTTTTCCCGGTAATCCGTATTTGGC (site AGAGTTACTGC)”, the “recombinant UMI read abundance (log10)” value stood at 2.43.

“AGATATACATGGACCGGTTTTCCCGGTAATCCGTATTTGTT (site AGATATACTAA)”: the “recombinant UMI read abundance (log10)” value was 1.74.

Regarding “AGATCATCATGGACCGGTTTTCCCGGTAATCCGTATTTGCA (site AGATCATCTTG)”, the “recombinant UMI read abundance (log10)” value came out at 2.25.

As to “AGATCATCATGGACCGGTTTTCCCGGTAATCCGTATTTGCA (site CGATCATCTAG)”, the “recombinant UMI read abundance (log10)” value came to 0.

Consider “AGATCTACATGGACCGGTTTTCCCGGTAATCCGTATTTGTG (site AAATCTACTCA)”, for which the “recombinant UMI read abundance (log10)” value is 0.223.

As to “AGATCTACATGGACCGGTTTTCCCGGTAATCCGTATTTGTG (site ACATCTACTCA)”, the “recombinant UMI read abundance (log10)” value came to 0.0151.

With “AGATCTACATGGACCGGTTTTCCCGGTAATCCGTATTTGTG (site AGATCTACTCA)”, the “recombinant UMI read abundance (log10)” value was 0.215.

Regarding “AGATCTACATGGACCGGTTTTCCCGGTAATCCGTATTTGTG (site ATATCTACTCA)”, the “recombinant UMI read abundance (log10)” value is 0.00795.

Turning to “AGATCTTCATGGACCGGTTTTCCCGGTAATCCGTATTTGCT (site AGATCTTCTAG)”, the “recombinant UMI read abundance (log10)” value amounted to 1.45.

As to “AGATCTTCATGGACCGGTTTTCCCGGTAATCCGTATTTGCT (site CGATCATCTAG)”, the “recombinant UMI read abundance (log10)” value was 0.

Take “AGATGTACATGGACCGGTTTTCCCGGTAATCCGTATTTGAC (site AGATGTACTGT)”: the “recombinant UMI read abundance (log10)” value stood at 1.96.

Take “AGATTCCCATGGACCGGTTTTCCCGGTAATCCGTATTTGTG (site AGATTCCCTCA)”: the “recombinant UMI read abundance (log10)” value stood at 0.348.

Take “AGATTCCCATGGACCGGTTTTCCCGGTAATCCGTATTTGTG (site AGCTTCCCTCA)”: the “recombinant UMI read abundance (log10)” value came to 0.0129.

Regarding “AGATTCCCATGGACCGGTTTTCCCGGTAATCCGTATTTGTG (site AGGTTCCCTCA)”, the “recombinant UMI read abundance (log10)” value was 0.0134.

“AGATTCCCATGGACCGGTTTTCCCGGTAATCCGTATTTGTG (site AGTTTCCCTCA)”: the “recombinant UMI read abundance (log10)” value was found to be 0.0189.

On to “AGCAAGACATGGACCGGTTTTCCCGGTAATCCGTATTTGCA (site AGAAAGACTTG)”, for which the “recombinant UMI read abundance (log10)” value was determined as 1.86.

Take “AGCAAGACATGGACCGGTTTTCCCGGTAATCCGTATTTGCA (site AGCAAGACTTG)”: the “recombinant UMI read abundance (log10)” value was 2.01.

Turning to “AGCAAGACATGGACCGGTTTTCCCGGTAATCCGTATTTGCA (site AGGAAGACTTG)”, the “recombinant UMI read abundance (log10)” value was 0.969.

As for “AGCAAGACATGGACCGGTTTTCCCGGTAATCCGTATTTGCA (site AGTAAGACTTG)”, the “recombinant UMI read abundance (log10)” value stood at 0.542.

Regarding “AGCACATCATGGACCGGTTTTCCCGGTAATCCGTATTTGGG (site AGCACATCTCC)”, the “recombinant UMI read abundance (log10)” value was 0.0655.

For “AGCACCACATGGACCGGTTTTCCCGGTAATCCGTATTTGCA (site AGCACCACTTG)”, the “recombinant UMI read abundance (log10)” value amounted to 2.15.

Consider “AGCACGACATGGACCGGTTTTCCCGGTAATCCGTATTTGTC (site AGCACGACTGA)”, for which the “recombinant UMI read abundance (log10)” value came out at 1.47.

For the sequence “AGCATAGCATGGACCGGTTTTCCCGGTAATCCGTATTTGTT (site AGCATAGCTAA)”, the “recombinant UMI read abundance (log10)” value worked out at 1.99.

“AGCATAGCATGGACCGGTTTTCCCGGTAATCCGTATTTGTT (site AGCCTAGCTAA)”: the “recombinant UMI read abundance (log10)” value stood at 0.0149.

On to “AGCATAGCATGGACCGGTTTTCCCGGTAATCCGTATTTGTT (site AGCGTAGCTAA)”, for which the “recombinant UMI read abundance (log10)” value came to 0.0357.

Turning to “AGCATAGCATGGACCGGTTTTCCCGGTAATCCGTATTTGTT (site AGCTTAGCTAA)”, the “recombinant UMI read abundance (log10)” value came out at 0.00966.

Consider “AGCCAAACATGGACCGGTTTTCCCGGTAATCCGTATTTGAG (site AGCCAAACTCT)”, for which the “recombinant UMI read abundance (log10)” value was 1.88.

For “AGCCAATCATGGACCGGTTTTCCCGGTAATCCGTATTTGGA (site AGCCAATCTTC)”, the “recombinant UMI read abundance (log10)” value was found to be 1.67.

For “AGCCATTCATGGACCGGTTTTCCCGGTAATCCGTATTTGAC (site AGCCATTCTGT)”, the “recombinant UMI read abundance (log10)” value turned out to be 2.1.

As to “AGCCATTCATGGACCGGTTTTCCCGGTAATCCGTATTTGAC (site AGCCCTTCTGT)”, the “recombinant UMI read abundance (log10)” value stood at 0.

For the sequence “AGCCATTCATGGACCGGTTTTCCCGGTAATCCGTATTTGAC (site AGCCGTTCTGT)”, the “recombinant UMI read abundance (log10)” value was determined as 0.

In the case of “AGCCATTCATGGACCGGTTTTCCCGGTAATCCGTATTTGAC (site AGCCTTTCTGT)”, the “recombinant UMI read abundance (log10)” value came to 0.

For the sequence “AGCCCATCATGGACCGGTTTTCCCGGTAATCCGTATTTGCT (site AGCCCATCTAG)”, the “recombinant UMI read abundance (log10)” value was determined as 1.83.

For “AGCCCTGCATGGACCGGTTTTCCCGGTAATCCGTATTTGGG (site AGCCCTGCTCC)”, the “recombinant UMI read abundance (log10)” value worked out at 0.336.

For the sequence “AGCCCTTCATGGACCGGTTTTCCCGGTAATCCGTATTTGAC (site AGCCATTCTGT)”, the “recombinant UMI read abundance (log10)” value was found to be 0.

On to “AGCCCTTCATGGACCGGTTTTCCCGGTAATCCGTATTTGAC (site AGCCCTTCTGT)”, for which the “recombinant UMI read abundance (log10)” value amounted to 2.11.

“AGCCCTTCATGGACCGGTTTTCCCGGTAATCCGTATTTGAC (site AGCCGTTCTGT)”: the “recombinant UMI read abundance (log10)” value is 0.

For the sequence “AGCCCTTCATGGACCGGTTTTCCCGGTAATCCGTATTTGAC (site AGCCTTTCTGT)”, the “recombinant UMI read abundance (log10)” value is 0.00743.

For “AGCCTAGCATGGACCGGTTTTCCCGGTAATCCGTATTTGGT (site AGCCTAGCTAA)”, the “recombinant UMI read abundance (log10)” value is 0.168.

With “AGCCTAGCATGGACCGGTTTTCCCGGTAATCCGTATTTGGT (site AGCCTAGCTAC)”, the “recombinant UMI read abundance (log10)” value turned out to be 0.

With “AGCCTAGCATGGACCGGTTTTCCCGGTAATCCGTATTTGGT (site AGCCTAGCTAG)”, the “recombinant UMI read abundance (log10)” value stood at 0.00404.

As to “AGCCTAGCATGGACCGGTTTTCCCGGTAATCCGTATTTGGT (site AGCCTAGCTAT)”, the “recombinant UMI read abundance (log10)” value is 0.00284.

“AGCCTGGCATGGACCGGTTTTCCCGGTAATCCGTATTTGTT (site AGCCTAGCTAA)”: the “recombinant UMI read abundance (log10)” value came out at 0.

For the sequence “AGCCTGGCATGGACCGGTTTTCCCGGTAATCCGTATTTGTT (site AGCCTCGCTAA)”, the “recombinant UMI read abundance (log10)” value was 0.0194.

For the sequence “AGCCTGGCATGGACCGGTTTTCCCGGTAATCCGTATTTGTT (site AGCCTGGCTAA)”, the “recombinant UMI read abundance (log10)” value stood at 0.0154.

Regarding “AGCCTGGCATGGACCGGTTTTCCCGGTAATCCGTATTTGTT (site AGCCTTGCTAA)”, the “recombinant UMI read abundance (log10)” value is 0.0159.

On to “AGCCTGTCATGGACCGGTTTTCCCGGTAATCCGTATTTGAC (site AGCCTATCTGT)”, for which the “recombinant UMI read abundance (log10)” value amounted to 0.

With “AGCCTGTCATGGACCGGTTTTCCCGGTAATCCGTATTTGAC (site AGCCTCTCTGT)”, the “recombinant UMI read abundance (log10)” value came to 0.

For the sequence “AGCCTGTCATGGACCGGTTTTCCCGGTAATCCGTATTTGAC (site AGCCTGTCTGT)”, the “recombinant UMI read abundance (log10)” value came out at 0.

Turning to “AGCCTGTCATGGACCGGTTTTCCCGGTAATCCGTATTTGAC (site AGCCTTTCTGT)”, the “recombinant UMI read abundance (log10)” value is 0.

Take “AGCCTTCCATGGACCGGTTTTCCCGGTAATCCGTATTTGAC (site AGCCTTACTGT)”: the “recombinant UMI read abundance (log10)” value was found to be 0.

In the case of “AGCCTTCCATGGACCGGTTTTCCCGGTAATCCGTATTTGAC (site AGCCTTCCTGT)”, the “recombinant UMI read abundance (log10)” value was found to be 0.

Consider “AGCCTTCCATGGACCGGTTTTCCCGGTAATCCGTATTTGAC (site AGCCTTGCTGT)”, for which the “recombinant UMI read abundance (log10)” value turned out to be 0.

Turning to “AGCCTTCCATGGACCGGTTTTCCCGGTAATCCGTATTTGAC (site AGCCTTTCTGT)”, the “recombinant UMI read abundance (log10)” value was determined as 0.

Turning to “AGCCTTGCATGGACCGGTTTTCCCGGTAATCCGTATTTGTT (site AGCCTAGCTAA)”, the “recombinant UMI read abundance (log10)” value is 0.00391.

“AGCCTTGCATGGACCGGTTTTCCCGGTAATCCGTATTTGTT (site AGCCTCGCTAA)”: the “recombinant UMI read abundance (log10)” value was 0.0115.

Regarding “AGCCTTGCATGGACCGGTTTTCCCGGTAATCCGTATTTGTT (site AGCCTGGCTAA)”, the “recombinant UMI read abundance (log10)” value is 0.0183.

In the case of “AGCCTTGCATGGACCGGTTTTCCCGGTAATCCGTATTTGTT (site AGCCTTGCTAA)”, the “recombinant UMI read abundance (log10)” value was 0.

With “AGCCTTTCATGGACCGGTTTTCCCGGTAATCCGTATTTGAG (site AGCCTTTCTAT)”, the “recombinant UMI read abundance (log10)” value was found to be 0.

For “AGCCTTTCATGGACCGGTTTTCCCGGTAATCCGTATTTGAG (site AGCCTTTCTCT)”, the “recombinant UMI read abundance (log10)” value is 0.
